Measurements published in EP1985629A1, “Pro-apoptotic molecules and therapeutic uses thereof” (UNIVERSITA DEGLI STUDI DI GENOVA, priority 2007, dated 2008).
Where a SMILES comes first, the peptide text is derived from it. [ ]: non-standard residue; d: D form. Aib = CC(C)(N)C(=O)O

How the values were obtained:
Bcl-XL = biological target: T1, Bcl-XL (Homo sapiens, UniProt Q07817, S2L); test: Fluorescence anisotropy binding and competition binding assay; settings: competition binding assay: BakF-BH3 2E-8 M, competitor peptide 2E-7 M, Bcl-XL 2E-8 M to 1E-6 M; 45 min, 30°C; read-out: Weighted mean Kd
T1 construct: with the C-terminus truncated; His6; made in house; host or cells: Escherichia coli BL21 (pLys)
T1 sequence (Q07817 1-212 S2L): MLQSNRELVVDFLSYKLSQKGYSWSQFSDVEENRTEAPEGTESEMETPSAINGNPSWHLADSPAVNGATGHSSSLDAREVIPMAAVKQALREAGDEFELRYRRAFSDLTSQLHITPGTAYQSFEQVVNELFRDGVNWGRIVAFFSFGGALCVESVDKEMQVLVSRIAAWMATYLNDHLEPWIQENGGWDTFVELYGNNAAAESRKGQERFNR
Protocol: Fluorescence Anisotropy was monitored with a Polarion Instrument (Tecan, Austria): excitation wavelength = 485 nm, emission wavelength = 535 nm. […] Anisotropy values were studied at a fixed concentration of fluoresceinated Bak BH3 molecule (2E-8 M), a fixed concentration of peptide inhibitors (2E-7 M) and increasing concentrations of Bel-XL (from 2E-8 M to 1E-6 M). Experiments were performed in 96-wells black non-binding plates (Corning), the experimental volume was always 200 µl / well. Reagents were mixed at room temperature and maintained at a constant temperature (30°C) during the measurements. Anisotropy measurements were performed at different times of incubation to assess the stability of the reactions. […]
For simple binding experiments we evaluated the Kd using a nonlinear regression analysis [NLIN SAS] to fit the Lundblad equation [38]. […]
We calculated the expected Anisotropy value solving a third degree equation obtained extending the simple binding equation to a competitive binding inhibition assay. […]
Point estimates of each equilibrium constant were evaluated using meta-analytical tools weighting each experimental result for its estimated variance. […]
Fluorescence Anisotropy (FA) is a quantitative technique to analyze the interaction of a smaller fluorescent molecule with a larger non fluorescent molecule. […]

[1] = Circular dichroism, relative content of secondary structure elements; type: physicochemical; set-up: key to α-Helix / β-Strands / β-Turns / Random: relative content as fraction, from CDSSTR deconvolution; settings: CDSSTR deconvolution
Protocol: Circular dichroism (CD) spectra in the far-UV region (190-260 nm) were collected on a Jasco J-715 spectropolarimeter using a 0.1 cm path-length cuvette. Temperature was kept at 25°C by a Peltier device. Peptide concentration was determined from the absorption of the aromatic residues at 280 nm.
Peptides solutions: Bim-BH3Y and Bim-BH3YA2Aib were suspended in water and potassium hydroxide was added up to complete solubilization. 072RB was dissolved in water. Concentration of stock solutions was about 0.1 mg/ml. For circular dichroism measurements, stock solutions were diluted in 10 mM potassium phosphate buffer, pH 7.
The relative content of secondary structure elements was calculated with the deconvolution program CDSSTR [31] (Table 2). […] 072RB has the highest helical content in the set examined here (0.30 α-helix percent).

[2] = Peptides stability in medium with 10% FBS or in 100% FBS (HPLC-MS); type: in vitro ADME; settings: medium (RPMI 1640) with 10% FBS, 37°C, 32 µM; calculated by linear regression
Protocol: Compounds were added to the medium solution of serum 10% or 100% FBS at the final concentration of 32 µM. Several extraction mixtures were attempted: MeOH; MeOH with 0,1% trifluoroacetic acid (TFA); (H2O: MeOH) 1:1, 1:4, 4;1. A perchloric acid (PCA) protein precipitation protocol was also tried. […] In both cases ice-cold methanol was added to the peptide solution. The mixture was centrifuged and the resulting supernatant was then added with ice-cold methanol (alone or containing 0,1% TFA) at a 1:1 final ratio and this procedure was repeated twice. Before extraction peptides were incubated in 10% FBS or 100% FBS at 37°C and, at different incubation times (0', 6, 24 and 48 hours), a sample of 50 µl was collected to be analyzed by HPLC-MS.

[3] = relative content, 10 mM potassium phosphate buffer, pH 7, 25°C

- Kd (Bcl-XL): 12 nM
- relative content of helices [1]: 0.15 α-helix percent
- Random [1, 3]: 0.56
- α-Helix [1, 3]: 0.15
- β-Strands [1, 3]: 0.14
- β-Turns [1, 3]: 0.15
- half-life [2]: 99,0 h
Structure (SMILES): CC[C@H](C)[C@H](NC(=O)[C@H](CCCNC(=N)N)NC(=O)[C@H](CCCNC(=N)N)NC(=O)[C@H](CC(C)C)NC(=O)[C@H](CCC(=O)O)NC(=O)[C@H](CCC(N)=O)NC(=O)C(C)(C)NC(=O)[C@@H](NC(=O)[C@H](Cc1ccc(O)cc1)NC(=O)[C@@H](NC(=O)[C@H](CCC(=O)O)NC(=O)[C@@H]1CCCN1C(=O)[C@H](CCCNC(=N)N)NC(=O)[C@H](CCSC)NC(=O)[C@@H](N)CC(=O)O)[C@@H](C)CC)[C@@H](C)CC)C(=O)NCC(=O)N[C@@H](CC(=O)O)C(=O)N[C@@H](C)C(=O)N[C@@H](Cc1ccccc1)C(=O)N[C@@H](CC(N)=O)C(=O)NC(C)(C)C(=O)N[C@@H](Cc1ccc(O)cc1)C(N)=O [Bim-BH3YA2Aib] (H-DMRPEIYI[Aib]QELRRIGDAFN[Aib]Y-NH2; N-terminus and C-terminus assumed)
